Data reported in patent US10793561B2, “1,8-naphthyridinone compounds and uses thereof” (NUVATION BIO INC., priority 2017, dated 2020).

Key:
adenosine A2A receptor [1] = biological target: T1, adenosine A2A receptor (Homo sapiens (Human), UniProt P29274); assay: Radioligand binding competition assay, adenosine A2A receptor
Experimental: (§1) Binding of selected compounds to the adenosine A1, A2A, A2B, and A3 receptors was tested using a binding competition assay.
(§2) The general protocol for the radioligand binding competition assay was as follows. Competition binding was performed in duplicate in the wells of a 96 well plate (Master Block, Greiner, 786201) containing binding buffer (optimized for each receptor), membrane extracts (amount of protein/well optimized for each receptor), radiotracer (final concentration optimized for each receptor), and test compound. Nonspecific binding was determined by co-incubation with 200-fold excess of cold competitor. The samples were incubated in a final volume of 0.1 mL at 25° C. for 60 minutes and then filtered over filter plates. Filters were washed six times with 0.5 mL of ice-cold washing buffer (optimized for each receptor) and 50 μL of Microscint 20 (Packard) were added on each filter. The filter plates were sealed, incubated 15 min on an orbital shaker and scintillation counted with a TopCount for 30 sec/filter.
For the adenosine A2A receptor radioligand binding assay, the following modifications were made to the general protocol. GF/C filters (Perkin Elmer, 6005174), presoaked in 0.01% Brij for 2 h at room temperature were used. Filters were washed six times with 0.5 mL of ice-cold washing buffer (50 mM Tris pH 7.4) and 50 μL of Microscint 20 (Packard) was added in each well. The plates were then incubated for 15 min on an orbital shaker and then counted with a TopCount™ for 1 min/well.
Another radioligand binding assay was used to evaluate the binding affinity for the adenosine A2A receptor assay was performed in duplicate in the wells of a 384 plate. Assay buffer contained DPBS 500 mM, MgCl2 0.1 mM, and 1% DMSO. Membrane-bead suspension was prepared by mixing 25.98 μL of human adenosine A2A membrane preparation (Perkin Elmer, RBHA2AM400UA) at 33.4 pg/mL, 28 μL of ADA at 20 pg/mL, and 932 μL of SPA beads at 3.33 mg/mL) and incubated the mixture for 20 min at room temperature. Mixed 20 μL of radiotracer (^3H-SCH 58261) at 15 nM to each well containing test articles at various concentrations and centrifuge the plate at 1000 rpm for 1 minute. Added 30 μL of the membrane-bead suspension to each well. Sealed the plates and incubated for 1 hr at room temperature with vigorous mixing on a plate mixer. Plates were read on Microbeta^2 (Perkin Elmer, 2450-0010).
(§3) CHO-K1-A3 cell membranes, 1.5 μg/well; a binding buffer comprising HEPES 25 mM pH 7.4, MgCl2 5 mM, CaCl2 1 mM, 0.5% BSA; a wash buffer comprising HEPES 25 mM pH 7.4, MgCl2 5 mM, CaCl2 1 mM; a Unifilter GF/C—treated for 2 h with 0.5% BS; and 0.4 nM of ^125I-AB-MECA as the tracer. The results of the binding assay are shown in Table B1-1 and are shown as percent residual binding at a given concentration. Percent of residual binding means binding of a compound in the presence of competitor normalized to the amount of binding in the absence of competitor. […] For example, compound 1 strongly bound to A2A (30% residual binding at a concentration of 100 nM), A1 (−3% residual binding at 300 nM) and A2B, (−9% residual binding at 300 nM) but weakly bound to A3 (96% residual binding at 300 nM).

adenosine A1 receptor = adenosine A1 receptor (Homo sapiens (Human), UniProt P30542); assay: Radioligand binding competition assay, adenosine A1 receptor (CHO-K1-A1 cell membranes); conditions: 300 nM compound
Chain of adenosine A1 receptor (P30542 whole entry): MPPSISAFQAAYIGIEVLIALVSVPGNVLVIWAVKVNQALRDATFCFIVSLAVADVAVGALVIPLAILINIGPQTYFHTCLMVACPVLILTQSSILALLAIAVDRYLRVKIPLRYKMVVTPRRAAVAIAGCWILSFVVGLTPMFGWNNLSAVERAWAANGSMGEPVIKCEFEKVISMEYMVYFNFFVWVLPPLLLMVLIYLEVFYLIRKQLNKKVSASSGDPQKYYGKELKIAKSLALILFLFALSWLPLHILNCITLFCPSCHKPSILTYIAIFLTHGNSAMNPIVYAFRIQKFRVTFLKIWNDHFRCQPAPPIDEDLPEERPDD
Experimental: as §1, §2
For the adenosine A1 radioligand binding competition assay, a similar procedure was used except that the following reagents were used: CHO-K1-A1 cell membranes; binding buffer comprising HEPES 25 mM pH 7.4, MgCl2 5 mM, CaCl2 1 mM, NaCl 100 mM, saponin 10 µg/mL; wash buffer comprising HEPES 25 mM pH 7.4, MgCl2 5 mM, CaCl2 1 mM, NaCl 100 mM; Unifilter GF/B—treated for 2 h with 0.5% PEI was the filter; and 1.6 nM of ^3H-DPCPX was the tracer.
as §3

adenosine A2B receptor = adenosine A2B receptor (Homo sapiens (Human), UniProt P29275); assay: Radioligand binding competition assay, adenosine A2B receptor (HEK-293-A2b cell membranes); conditions: 300 nM compound
Chain of adenosine A2B receptor (P29275 whole entry): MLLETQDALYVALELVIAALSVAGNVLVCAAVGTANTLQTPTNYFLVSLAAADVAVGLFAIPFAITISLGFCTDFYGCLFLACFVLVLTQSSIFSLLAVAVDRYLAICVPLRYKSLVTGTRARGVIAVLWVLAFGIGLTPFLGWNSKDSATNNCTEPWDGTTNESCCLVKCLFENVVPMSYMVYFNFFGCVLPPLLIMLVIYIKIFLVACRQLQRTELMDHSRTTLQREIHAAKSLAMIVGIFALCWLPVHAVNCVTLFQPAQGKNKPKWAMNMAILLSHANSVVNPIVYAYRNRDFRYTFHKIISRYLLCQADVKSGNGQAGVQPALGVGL
Experimental: as §1, §2
Similarly, the following reagents were used for the adenosine A2B radioligand binding competition assay: HEK-293-A2b cell membranes, 20 μg/well, preincubated 30 min at RT with […] Adenosine Deaminase; a binding buffer comprising HEPES 10 mM pH7.4, EDTA 1 mM, 0.5% BSA; a wash buffer comprising HEPES 10 mM pH7.4, EDTA 1 mM; a Unifilter GF/C—treated for 2 h with 0.5% PEI; and 10 nM ^3H-DPCPX as the tracer.
as §3

adenosine A3 receptor = adenosine A3 receptor (Homo sapiens (Human), UniProt P0DMS8); assay: Radioligand binding competition assay, adenosine A3 receptor (CHO-K1-A3 cell membranes); conditions: 300 nM compound
Chain of adenosine A3 receptor (P0DMS8 whole entry): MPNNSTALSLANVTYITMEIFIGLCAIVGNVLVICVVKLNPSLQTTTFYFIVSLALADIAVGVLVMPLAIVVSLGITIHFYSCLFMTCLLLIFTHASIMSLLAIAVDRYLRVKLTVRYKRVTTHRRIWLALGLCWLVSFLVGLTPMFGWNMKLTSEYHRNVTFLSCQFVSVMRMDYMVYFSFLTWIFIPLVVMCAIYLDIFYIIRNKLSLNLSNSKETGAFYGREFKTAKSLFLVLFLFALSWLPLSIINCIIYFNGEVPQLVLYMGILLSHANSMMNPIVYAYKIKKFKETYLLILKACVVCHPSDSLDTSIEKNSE
Experimental: as §1, §2
For the adenosine A3 radioligand binding competition assay, the following reagents were used:
as §3

adenosine A2A receptor [2] = biological target: T1, adenosine A2A receptor; assay: cAMP assay in HEK-293 cells expressing human recombinant adenosine A2A receptor; type: cell-based; conditions: HEK293; 100 nM compound; read-out: A2a cAMP % inh @ 100 nM
Experimental: The functional activity of compounds was tested using one of the two assays to detect the present of cAMP. Activation of G-protein coupled receptors (such as A2A) results in activation of adenylcyclase which converts ATP into cAMP which is used as a downstream signaling molecule. Therefore, molecules which act as GPCR (or specifically A2A receptor) antagonists cause a decrease in intracellular cAMP concentration.
Both assays used HEK-293 cells expressing human recombinant adenosine A2A receptor were grown prior to the test in media without antibiotic. Assay 1: The cells were detached by gentle flushing with PBS-EDTA (5 mM EDTA), recovered by centrifugation and suspended in assay buffer (KRH: 5 mM KCl, 1.25 mM MgSO4, 124 mM NaCl, 25 mM HEPES, 13.3 mM Glucose, 1.25 mM KH2PO4, 1.45 mM CaCl2, 0.5 g/L BSA, supplemented with Rolipram).
12 μL of cells were mixed with 6 μL of the test compound at increasing concentrations and then incubated for 10 min. Thereafter 6 μL of the reference agonist was added at a final concentration corresponding to the historical EC80. The plates were then incubated for 30 min at room temperature. After addition of the lysis buffer and 1 hour incubation, cAMP concentrations were estimated, according to the manufacturer specification, with the HTRF® kit.
Assay 2: 100 nL of test articles at 100× of final concentration were transferred to assay plate by Echo. Cells were washed twice with 5 mL of PBS […]. After aspirating the PBS and adding 1.5 mL versine, cells were incubated at 37° C. for 2-5 min. After centrifugation, 4 mL of medium was added and adjusted cell density to 5,000 cells/well with stimulation buffer. 10 μL of cells were aliquoted to the assay plate, centrifuged at 1000 rpm for 1 minute, and incubated for 60 minutes at room temperature. 5 μL 4× Eu-cAMP tracer solution and 5 μL 4× Ulight™-anti-cAMP solution were added to assay plate, followed by centrifugation and 60-minute incubation at room temperature. Plates were read on EnVision.

T1 sequence (P29274 whole entry): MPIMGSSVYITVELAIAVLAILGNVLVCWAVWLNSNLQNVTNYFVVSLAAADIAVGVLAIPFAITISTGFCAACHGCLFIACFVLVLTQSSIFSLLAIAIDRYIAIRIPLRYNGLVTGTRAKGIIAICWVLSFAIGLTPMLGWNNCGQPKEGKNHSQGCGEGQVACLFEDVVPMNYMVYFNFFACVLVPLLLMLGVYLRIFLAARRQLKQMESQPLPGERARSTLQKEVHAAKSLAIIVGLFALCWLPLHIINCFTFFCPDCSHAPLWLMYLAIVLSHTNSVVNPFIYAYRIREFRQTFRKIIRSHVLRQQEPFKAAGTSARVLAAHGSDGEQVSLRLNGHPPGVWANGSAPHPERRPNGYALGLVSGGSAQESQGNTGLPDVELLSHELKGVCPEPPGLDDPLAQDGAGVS

O=c1cc[nH]c2nc(-c3ccco3)c(-c3ccc4ncccc4c3)cc12 [Compound No. 1.14, 7-(furan-2-yl)-6-(quinolin-6-yl)-1,8-naphthyridin-4(1H)-one]
IC50 (adenosine A2A receptor [1]): 33 nM
A2A radioligand binding competition assay % residual binding @ 3000 nM (adenosine A2A receptor [1]; 3000 nM compound): 5/ND/ND/ND %
Radioligand binding competition assay % residual binding @ 300 nM (A1) (adenosine A1 receptor): 13%
Radioligand binding competition assay % residual binding @ 300 nM (A2b) (adenosine A2B receptor): 0%
Radioligand binding competition assay % residual binding @ 300 nM (A3) (adenosine A3 receptor): 87%
inhibition at 0.1 µM (adenosine A2A receptor [2]): 94%
